# Laboratory results taken from patent publication US20200397796A1, “METHODS OF TREATMENT OF CANCER COMPRISING CHK1 INHIBITORS” (SIERRA ONCOLOGY, INC., priority 2018, published 2020).
# Tests used:
# CYP 2A6 = CYP 2A6 (Homo sapiens, UniProt P11509); assay: CYP inhibition, 2A6; assay type: in vitro ADME; settings: highest concentration investigated
# [1] = Plasma protein binding, ultracentrifugation, monkey; assay type: in vitro ADME; settings: for Percentage Bound / Percentage Free: Monkey plasma
# Method: The PK of SRA737 have been determined in the mouse, rat, dog and monkey following oral and IV administration (Table 3). […] An acceptable terminal elimination t1/2 was also observed in each species. […] The plasma protein binding of SRA737 at 1 and 10 μM was examined in mouse, minipig, monkey and human plasma using ultracentrifugation and in dog plasma (10 μM) using rapid equilibrium dialysis.
# [2] = GLP 28-day repeat oral dose toxicity and toxicokinetics, mouse
# SW620 mouse colon cancer = assay: In vivo efficacy, SW620 xenograft model; settings: in combination with standard-dose gemcitabine; data not shown
# Method: (§1) A program of in vivo efficacy studies was performed to assess the activity of SRA737 in combination with genotoxic chemotherapy and targeted agents, and as monotherapy.
# (§2) One of these models also carried a MYCN amplification. A fourth HGSOC PDX model with partial resistance to PARPi was also sensitive to high dose SRA737 monotherapy.
# [3] = Caco-2 permeability assay; assay type: in vitro ADME; settings: human
# Method: The membrane permeability of SRA737 was assessed in the parallel artificial membrane permeability assay (PAMPA) and Caco-2 assays. Permeability in the PAMPA assay was classified as low.
# [4] = tested on: HGSOC PDX models harboring CCNE1 amplifications accompanied by TP53 mutations; assay: In vivo efficacy, HGSOC PDX models with CCNE1 amplifications; parameters: species or system mouse; settings: single agent; several models; data not shown
# Method: as §1, §2
# [5] = GLP 28-day repeat oral dose toxicity and toxicokinetics, minipig; assay type: in vivo
# Excerpt: Reference source not found.6.
# [6] = female, mouse, in vivo, po, 10 mg/kg/day
# [7] = female, mouse, in vivo, po, 40 mg/kg/day
# [8] = female, mouse, in vivo, po, 75 mg/kg/day
# [9] = male, mouse, in vivo, po, 10 mg/kg/day
# [10] = male, mouse, in vivo, po, 40 mg/kg/day
# [11] = male, mouse, in vivo, po, 75 mg/kg/day
# [12] = in vivo, po, Minipig Female, 10 mg/kg/day (HNSTD), daily dosing for 28 days
# [13] = in vivo, po, Minipig Female, 40 mg/kg/day, daily dosing for 28 days
# [14] = in vivo, po, Minipig Female, 75 mg/kg/day, daily dosing for 28 days
# [15] = in vivo, po, Minipig Male, 10 mg/kg/day (HNSTD), daily dosing for 28 days
# [16] = in vivo, po, Minipig Male, 40 mg/kg/day, daily dosing for 28 days
# Chain of CYP 2A6 (P11509 whole entry): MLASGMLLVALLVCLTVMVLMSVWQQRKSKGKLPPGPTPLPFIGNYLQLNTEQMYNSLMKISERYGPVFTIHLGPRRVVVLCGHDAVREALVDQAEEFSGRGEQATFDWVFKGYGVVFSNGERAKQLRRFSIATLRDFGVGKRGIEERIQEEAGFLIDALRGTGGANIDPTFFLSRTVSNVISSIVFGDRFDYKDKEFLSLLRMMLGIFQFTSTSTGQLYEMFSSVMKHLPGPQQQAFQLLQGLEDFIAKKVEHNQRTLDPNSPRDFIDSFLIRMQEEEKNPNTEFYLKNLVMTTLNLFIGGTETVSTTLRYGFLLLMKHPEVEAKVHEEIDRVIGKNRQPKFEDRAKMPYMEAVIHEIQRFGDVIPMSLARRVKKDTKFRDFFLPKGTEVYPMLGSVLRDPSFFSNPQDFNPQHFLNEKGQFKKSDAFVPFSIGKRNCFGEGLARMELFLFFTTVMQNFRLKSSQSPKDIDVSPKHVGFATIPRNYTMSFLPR
structure (smiles),measurement,setting,value
"N#Cc1cnc(Nc2cc(NCC3CNCCO3)c(C(F)(F)F)cn2)cn1 (stereo not drawn) [SRA737, 5-[[4-[[morpholin-2-yl]methylamino]-5-(trifluoromethyl)-2-pyridyl]amino]pyrazine-2-carbonitrile]",IC50,CYP 2A6,10 to 50 µM
same,Percentage Bound,[1]; 1 μM,88.8%
same,Percentage Free,[1]; 1 μM,11.2%
same,Percentage Bound,[1]; 10 μM,85.8%
same,Percentage Free,[1]; 10 μM,14.2%
same,fraction unbound,"[1]; plasma, monkey, summary of 1 and 10 μM",0.13
same,AUC(0-t),[2]; [6],3610 ng·h/mL
same,Cmax,[2]; [6],918 ng/mL
same,half-life,[2]; [6],5.18 h
same,AUC(0-t),[2]; [7],24800 ng·h/mL
same,Cmax at 28 days,[2]; [7],2350 ng/mL
same,half-life,[2]; [7],5.09 h
same,AUC(0-t),[2]; [8],45500 ng·h/mL
same,Cmax,[2]; [8],4030 ng/mL
same,half-life,[2]; [8],6.96 h
same,AUC(0-t),[2]; [9],4410 ng·h/mL
same,Cmax,[2]; [9],903 ng/mL
same,AUC(0-t),[2]; [10],34300 ng·h/mL
same,Cmax at 28 days,[2]; [10],3250 ng/mL
same,half-life,[2]; [10],6.22 h
same,AUC(0-t),[2]; [11],68600 ng·h/mL
same,Cmax,[2]; [11],5450 ng/mL
same,half-life,[2]; [11],8.36 h
same,toxicological findings,"[2]; mouse pivotal study, dose-dependent, reversible on cessation",bone marrow toxicity
same,MTD at 28 days,"[2]; mouse, in vivo, po",75 mg/kg/day
same,antitumor activity,SW620 mouse colon cancer,"Significant, dose-dependent antitumor activity"
same,Papp at 10 μM,[3],20.7 ± 9.1 ×10⁻⁶ cm/s
same,efflux ratio at 10 μM,[3]; read-out: efflux ratio (A>B/B>A),0.8
same,antitumor activity,[4],Significant antitumor activity
same,AUC(0-t),[5]; [12],6560 ng·h/mL
same,Cmax,[5]; [12],515 ng/mL
same,half-life,[5]; [12],13.6 h
same,AUC(0-t),[5]; [13],45500 ng·h/mL
same,Cmax,[5]; [13],2830 ng/mL
same,half-life,[5]; [13],14.3 h
same,AUC(0-t),[5]; [14],97000 ng·h/mL
same,Cmax,[5]; [14],5340 ng/mL
same,half-life,[5]; [14],31.5 h
same,AUC(0-t),[5]; [15],6480 ng·h/mL
same,Cmax,[5]; [15],622 ng/mL
same,half-life,[5]; [15],9.25 h
same,AUC(0-t),[5]; [16],22200 ng·h/mL
same,Cmax at 28 days,[5]; [16],2070 ng/mL
same,half-life,[5]; [16],7.66 h
same,toxicological findings,"[5]; minipig pivotal study, dose-dependent, reversible on cessation",bone marrow toxicity
